Source: patent publication US6593342B1, “Pharmaceutical compositions comprising 2-quinolones” (Laboratoire L. Lafon, priority 1998, dated 2003)

Key:
[1] = test system: A-427; test: MTT test, A-427; format: cell-based; conditions: Homo sapiens, 10^−5 M, 72 hours, control = 100%, mean ± SEM, read-out: average optical density (MTT), percentage relative to control
Protocol: (§1) The influence of the compounds of formulae (I) and (Ia) on non-clonogenic cells was evaluated with the aid of the MTT calorimetric test.
(§2) The principle of the MTT test is based on the mitochondrial reduction, by the metabolically active live cells, of the yellow-colored product MTT (3-(4,5-dimethylthiazol-2-yl)-2,5-diphenyltetrazolium bromide) to a blue-colored product, formazan. The amount of formazan thus obtained is directly proportional to the amount of live cells present in the culture well(s). This amount of formazan is measured by spectrophotometry.
(§3) The cell lines are maintained as a monolayer culture at 37° C. in stoppered culture dishes containing MEM 25 MM HEPES (Minimum Essential Medium) base medium. This medium is suited to the growth of a range of various mammalian diploid or primary cells. This medium is then supplemented with:
(§4) an amount of 5% of FCS (Foetal Calf Serum) decomplemented at 56° C. for 1 hour,
(§5) 0.6 mg/ml of L-glutamine,
(§6) 200 μg/ml of streptomycin,
(§7) The 12 human cancer cell lines which were used were obtained from the American Type Culture Collection (ATCC, Rockville, Md., USA). These 12 cell lines are:
(§8) A549 (code ATCC: CCL-185) and A-427 (code ATCC: HTB-53) which are two non-small-cell lung cancers,
(§9) Experimentally: 100 μl of a cell suspension containing 20 000 to 50 000 (depending on the cell type used) cells/ml of culture medium are inoculated in 96-well flat-bottomed multi-well plates and are incubated at 37° C., under an atmosphere comprising 5% CO2 and 70% humidity. After incubation for 24 hours, the culture medium is replaced with 100 μl of fresh medium containing either the various test compounds at concentrations ranging from 10^−5 to 10^−10 M or the solvent used to dissolve the test products (control condition). After incubation for 72 hours under the above conditions, the culture medium is replaced with 100 μl of a yellowish solution of MTT dissolved at a rate of 1 mg/ml in RPMI 1640. The microplates are reincubated for 3 hours at 37° C. and are then centrifuged for 10 minutes at 400×g. The yellowish solution of MTT is removed and the blue formazan crystals formed in the cell are dissolved in 100 μl of DMSO. The microplates are then shaken for 5 minutes. The intensity of the resulting blue coloration, and thus of the conversion of the yellow product MTT into blue formazan by the cells that are still alive at the end of the experiment, is quantified by spectrophotometry using a Dynatech Immunoassay System machine at wavelengths of 570 nm and 630 nm corresponding, respectively, to the maximum absorption wavelengths of formazan and to the background noise. Software incorporated in the spectrophotometer calculates the average optical density values and the standard deviation (SD) and standard error of mean (SEM) values.
(§10) By way of example, the results of the average optical density, expressed as a percentage relative to the average optical density measured under the control condition (set equal to 100%), obtained at a concentration of 10^−5 M on the 12 abovementioned tumor cell lines are given in Table II.

[2] = test system: T24; test: MTT test, T24; format: cell-based; conditions: Homo sapiens, T-24, 10^−5 M, 72 hours, control = 100%, mean ± SEM, read-out: average optical density (MTT), percentage relative to control
Protocol: as §1, §2, §3, §4, §5, §6, §7
(§11) J82 (code ATCC: HTB-1) and T24 (code ATCC: HTB-4) which are two bladder cancers,
as §9, §10

[3] = test system: HCT-15; test: MTT test, HCT-15; format: cell-based; conditions: Homo sapiens, 10^−5 M, 72 hours, control = 100%, mean ± SEM, read-out: average optical density (MTT), percentage relative to control
Protocol: as §1, §2, §3, §4, §5, §6, §7
(§12) HTC-15 (code ATCC: CCL-225) and LoVo (code ATCC: CCL-229) which are two colorectal cancers,
as §9, §10

[4] = test system: MCF7; test: MTT test, MCF7; format: cell-based; conditions: Homo sapiens, 10^−5 M, 72 hours, control = 100%, mean ± SEM, read-out: average optical density (MTT), percentage relative to control
Protocol: as §1, §2, §3, §4, §5, §6, §7
(§13) T-47D (code ATCC: HTB-133) and MCF7 (code ATCC: HTB-22) which are two breast cancers,
as §9, §10

[5] = test system: PC-3; test: MTT test, PC-3; format: cell-based; conditions: Homo sapiens, 10^−5 M, 72 hours, control = 100%, mean ± SEM, read-out: average optical density (MTT), percentage relative to control
Protocol: as §1, §2, §3, §4, §5, §6, §7
PC-3 (code ATCC: CRL-1435) which is a prostate cancer.
as §9, §10

[6] = test system: U-87MG; test: MTT test, U-87MG; format: cell-based; conditions: Homo sapiens, 10^−5 M, 72 hours, control = 100%, mean ± SEM, read-out: average optical density (MTT), percentage relative to control
Protocol: as §1, §2, §3, §4, §5, §6, §7
(§14) U-373MG (code ATCC: HTB-17) and U-87MG (code ATCC: HTB-14) which are two glioblastomas,
as §9, §10

[7] = Determination of the maximum tolerated dose (MTD); conditions: mouse, in vivo, ip; B6D2F1/Jico mice; single intraperitoneal administration, 2.5 to 160 mg/kg; survival over 14 days
Protocol: 3.—Determination of the Maximum Tolerated Dose (MTD):
The evaluation of the maximum tolerated dose was carried out on 4- to 6-week-old B6D2F1/Jico mice. The compounds were administered intraperitoneally at increasing doses graduating from 2.5 to 160 mg/kg. The value of the MTD (expressed in mg/kg) is determined from the observation of the survival rate of the animals over a 14-day period after a single administration of the product under consideration. The weight change of the animals is also monitored during this period. When the value of the MTD is greater than 160 mg/kg, the MTD value is likened to 160 mg/kg by default.
The results of the estimation of the maximum tolerated dose (MTD) are collated in the following table: […]

[8] = test system: T-47D; test: MTT test, T-47D; format: cell-based; conditions: Homo sapiens, T47D, 10^−5 M, 72 hours, control = 100%, mean ± SEM, read-out: average optical density (MTT), percentage relative to control
Protocol: as §1, §2, §3, §4, §5, §6, §7, §13, §9, §10

[9] = test system: LoVo; test: MTT test, LoVo; format: cell-based; conditions: Homo sapiens, 10^−5 M, 72 hours, control = 100%, mean ± SEM, read-out: average optical density (MTT), percentage relative to control
Protocol: as §1, §2, §3, §4, §5, §6, §7, §12, §9, §10

[10] = test system: J82; test: MTT test, J82; format: cell-based; conditions: Homo sapiens, 10^−5 M, 72 hours, control = 100%, mean ± SEM, read-out: average optical density (MTT), percentage relative to control
Protocol: as §1, §2, §3, §4, §5, §6, §7, §11, §9, §10

[11] = test system: U-373MG; test: MTT test, U-373MG; format: cell-based; conditions: Homo sapiens, U373 MG, 10^−5 M, 72 hours, control = 100%, mean ± SEM, read-out: average optical density (MTT), percentage relative to control
Protocol: as §1, §2, §3, §4, §5, §6, §7, §14, §9, §10

[12] = test system: SW1088; test: MTT test, SW1088; format: cell-based; conditions: Homo sapiens, 10^−5 M, 72 hours, control = 100%, mean ± SEM, read-out: average optical density (MTT), percentage relative to control
Protocol: as §1, §2, §3, §4, §5, §6, §7
SW1088 (code ATCC: HTB-12) which is an astrocytoma,
as §9, §10

[13] = test system: A549; test: MTT test, A549; format: cell-based; conditions: Homo sapiens, 10^−5 M, 72 hours, control = 100%, mean ± SEM, read-out: average optical density (MTT), percentage relative to control
Protocol: as §1, §2, §3, §4, §5, §6, §7, §8, §9, §10

melting point	Structure (SMILES)	viability at 10 µM [1]	viability at 10 µM [2]	viability at 10 µM [3]	viability at 10 µM [4]	viability at 10 µM [5]	viability at 10 µM [6]	MTD at 14 day [7]	viability at 10 µM [8]	viability at 10 µM [9]	viability at 10 µM [10]	viability at 10 µM [11]	viability at 10 µM [12]	viability at 10 µM [13]
–	CCOC(=O)Cn1c(=O)c(-c2ccc(OC)cc2)cc2c(OC)cc(OC)cc21 [CRL8314]	104 ± 3.1%	61.9 ± 2.5%	116 ± 4.4%	72.2 ± 2%	88.6 ± 1.4%	74.5 ± 3.4%	> 160 mg/kg	114 ± 2.3%	82.9 ± 2.5%	33.2 ± 1.2%	89.2 ± 2%	85.4 ± 2.5%	85.2 ± 1.4%
–	COc1ccc(-c2cc3c(OC)cc(OC)cc3n(CC(=O)O)c2=O)cc1 [CRL8317, 2-[5,7-Dimethoxy-3-(4-methoxyphenyl)-2-oxo-1,2-dihydro-1-quinolinyl]acetic Acid]	91.3 ± 2%	91.4 ± 4.3%	104 ± 2.6%	96 ± 2.1%	97.9 ± 1.1%	91 ± 4.1%	> 160 mg/kg	95 ± 2.5%	86.8 ± 2.8%	83.6 ± 1.8%	91.2 ± 1.9%	103 ± 2.3%	94.7 ± 2.2%
–	COC(=O)CCn1c(=O)c(-c2ccc(OC)cc2)cc2c(OC)cc(OC)cc21 [CRL8318]	74 ± 3%	81.8 ± 1.4%	113 ± 1.7%	105 ± 2.4%	79.2 ± 2.8%	78.1 ± 2.4%	> 160 mg/kg	100 ± 3.9%	75.2 ± 2.3%	72.8 ± 1.2%	89.9 ± 1.3%	75.2 ± 3%	86.6 ± 2.5%
–	COc1ccc(-c2cc3c(OC)cc(OC)cc3n(CCC(=O)O)c2=O)cc1 [CRL8319, 3-[5,7-Dimethoxy-3-(4-methoxyphenyl)-2-oxo-1,2-dihydro-1-quinolinyl]propanoic Acid]	79.1 ± 2.5%	89.6 ± 2.1%	96.7 ± 1.6%	102 ± 2%	90.7 ± 3.6%	115 ± 2.9%	> 160 mg/kg	104 ± 2.5%	79.7 ± 2.7%	80.9 ± 1%	102 ± 1.5%	89.8 ± 2.7%	97.3 ± 1.2%
–	Cn1c(=O)c(-c2ccc(O)cc2)cc2c(O)cc(O)cc21 [CRL8321, 5,7-Dihydroxy-3-(4-hydroxyphenyl)-1-methyl-1,2-dihydro-2-quinolinone]	107 ± 1.4%	103 ± 1.7%	118 ± 1.6%	96.6 ± 0.9%	102 ± 3.1%	96.5 ± 1.2%	> 160 mg/kg	91.5 ± 1.2%	108 ± 1.1%	88.6 ± 0.9%	97.1 ± 2.4%	97.2 ± 1.8%	99.4 ± 1.3%
–	COc1cc(OC)c2cc(-c3ccccc3)c(O)nc2c1 [CRL8330, 5,7-Dimethoxy-3-phenyl-1,2-dihydro-2-quinolinone]	59.8 ± 1%	57.4 ± 2.3%	94.7 ± 2.1%	87.2 ± 3%	48.5 ± 2.1%	86.6 ± 0.7%	> 160 mg/kg	77.6 ± 3%	59.9 ± 4.2%	70.5 ± 2.4%	75.5 ± 3.7%	73.3 ± 1.8%	76.3 ± 2.4%
–	COc1ccc(-c2cc3c(OC)ccc(OC)c3nc2O)cc1 [CRL8336, 5,8-Dimethoxy-3-(4-methoxyphenyl)-1,2-dihydro-2-quinolinone]	87.9 ± 3.1%	88.2 ± 1.4%	93.1 ± 3.2%	73.9 ± 0.7%	91.7 ± 1.5%	82.3 ± 1.8%	> 160 mg/kg	96.2 ± 2.9%	92.6 ± 3.4%	90.9 ± 0.9%	82.3 ± 1.6%	101 ± 4.3%	114 ± 1.9%
–	COc1cccc2cc(-c3ccccc3)c(O)nc12 [CRL8339, 8-Methoxy-3-phenyl-1,2-dihydro-2-quinolinone]	52.3 ± 2.3%	87.4 ± 2%	65.5 ± 2.2%	82.7 ± 3.5%	84.3 ± 1.8%	69.1 ± 2.1%	> 160 mg/kg	81 ± 2.8%	74.4 ± 1.8%	83.7 ± 0.6%	73.6 ± 1.8%	87.1 ± 2.6%	49.6 ± 2.2%
106 to 107 °C	COc1ccc(-c2cc3c(OC)cc(OC)cc3nc2OC)cc1 [Compound 7a, 2,5,7-Trimethoxy-3-(4-methoxyphenyl)quinoline]	–	–	–	–	–	–	–	–	–	–	–	–	–
95 to 96 °C	CCOC(=O)COc1nc2cc(OC)cc(OC)c2cc1-c1ccc(OC)cc1 [Compound 11a, Ethyl 2-([5,7-Dimethoxy-3-(4-methoxyphenyl)-2-quinolinyl]oxy)acetate]	–	–	–	–	–	–	–	–	–	–	–	–	–
114 to 115 °C	COc1ccc(-c2cc3c(OC)cc(OC)cc3nc2OCC(=O)OCc2ccccc2)cc1 [Compound 13a, Benzyl 2-([5,7-Dimethoxy-3-(4-methoxyphenyl)-2-quinolinyl]oxy)acetate]	–	–	–	–	–	–	–	–	–	–	–	–	–
146 to 147 °C	CCN(CC)C(=O)COc1nc2cc(OC)cc(OC)c2cc1-c1ccc(OC)cc1 [Compound 18a, N,N-Diethyl-2-([5,7-dimethoxy-3-(4-methoxyphenyl)-2-quinolinyl]oxy)acetamide]	–	–	–	–	–	–	–	–	–	–	–	–	–
149 to 150 °C	COc1ccc(-c2cc3c(OC)cc(OC)cc3nc2OCC#N)cc1 [Compound 19a, 2-([5,7-Dimethoxy-3-(4-methoxyphenyl)-2-quinolinyl]oxy)acetonitrile]	–	–	–	–	–	–	–	–	–	–	–	–	–
54 to 55 °C	COc1ccc(-c2cc3c(OC)cc(OC)cc3nc2OCCCN(C)C)cc1 [Compound 22a]	–	–	–	–	–	–	–	–	–	–	–	–	–
49 to 50 °C	COc1ccc(-c2cc3c(OC)cc(OC)cc3nc2OCCN(C)C)cc1 [Compound 23a, N,N-Dimethyl-2-[5,7-dimethoxy-3-(4-methoxyphenyl)-2-quinolyl]oxy-1-ethanamine]	–	–	–	–	–	–	–	–	–	–	–	–	–
243 to 244 °C	COc1ccc2[nH]c(=O)c(-c3ccccc3)cc2c1 [Compound 44, 6-Methoxy-3-phenyl-1,2-dihydro-2-quinolinone]	–	–	–	–	–	–	–	–	–	–	–	–	–
